Our source for the RP-LC retention time values is the METLIN SMRT retention time set (Domingo-Almenara et al. 2019).

This data set can be described thus: gradient 5% acetonitrile 3 min, to 50% in 2 min, to 85% in 15 min, held 3 min, 100 µL/min. Particulars: column: Zorbax Extend-C18 2.1 x 50 mm; eluents: water / acetonitrile, 0.1% formic acid. The method in brief:
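Each retention time is based on an adduct peak selected computationally and verified by manual inspection. Measurements used HPLC–quadrupole time-of-flight mass spectrometry in positive and negative ionization mode on mixtures of ~100 pure standards. Chromatography ran on a Zorbax Extend-C18 column (2.1 × 50 mm, 1.8 μm) at 100 μL/min with water and acetonitrile, each containing 0.1% formic acid, and dead and dwell volumes of 40 μL and 900 μL.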
Compound `CCOC(=O)c1nc(N2CCN(c3ccccc3F)CC2)c2c(C)noc2n1` had an RP-LC retention time of 1010 s.
Take `N#Cc1ccc(S(=O)(=O)N2CCCOCCNC(=O)[C@@H]3CCC[C@@H]32)cc1`: the RP-LC retention time is 714 s.
For `CC(=O)N1CCCSc2ccc(S(=O)(=O)N3CCN(c4cccc(Cl)c4)CC3)cc21` the value was 1050 s.
Consider `COc1ccc(N2CC(c3nc(-c4ccc(Cl)cc4)no3)CC2=O)cc1OC` (centres undefined), for which the RP-LC retention time is 947 s.
With `COc1ccc(CC(=O)N2CCc3nc(CNC(=O)C4CCC4)n(C)c3C2)cc1`, the RP-LC retention time is 589 s.
In turn, `COc1ccc(N2CCN(C(=O)c3cn4nc(Cl)ccc4n3)CC2)cc1` displayed an RP-LC retention time of 714 s.
`CCOc1ccc(-c2ccc(=O)n(CCc3nc(-c4ccc5c(c4)OCO5)no3)n2)cc1` gave an RP-LC retention time of 986 s.
In turn, `O=C(CN1CCN(Cc2cccc(Cl)c2)C1=O)NCc1ccncc1` had an RP-LC retention time of 599 s.
The compound `CCCNC(=O)N1CCC2(CC1)C(=O)N(C)c1ccccc12` showed an RP-LC retention time of 708 s.
For `CCn1c(=O)sc2cc(S(=O)(=O)N3CCC(C(=O)Nc4cccc(SC)c4)CC3)ccc21` the value was 975 s.
Then `CCN(CC)CCN1c2ccccc2Sc2ccc3ccccc3c21`, with 893 s; and `Cn1nc(-c2nnc(-c3ccccc3F)o2)c2c1CCN(S(=O)(=O)c1ccc(Cl)s1)C2`, with 1010 s; and `CNc1nc(Nc2ccccc2OC)nc2ccccc12`, with 659 s.
In turn, `CCS(=O)(=O)N1CC(=O)N(c2ccc(F)cc2C)C(C)(C(=O)NC2CCCC2)C1` (centres undefined) yielded an RP-LC retention time of 805 s.
Consider `O=C(NCc1ccccc1F)C1CCCN(c2nc3ccsc3c(=O)n2Cc2ccc(F)cc2)C1` (centres undefined), for which the RP-LC retention time was determined as 958 s.
For the compound `CCc1noc([C@@H]2CC(F)(F)CN2C(=O)CCc2c(C)noc2C)n1`, the RP-LC retention time was 775 s.
For `CN(C)C(=O)c1cc2c(s1)CCC(C(=O)N1CCN(Cc3ccccc3)CC1)C2` (centres undefined) the value was 556 s; for `O=C1CCCc2cc(S(=O)(=O)NCC3CCN(Cc4cccc(F)c4)CC3)ccc2N1`, 606 s.
With `CCOc1ccc(NC(=O)CSc2nccc(N3CCN(c4cc(C)ccc4C)CC3)n2)cc1`, the RP-LC retention time came to 928 s.
Consider `COC(=O)c1ccc2c(=O)n(-c3ccc(F)cc3)c(N3CCN(c4ccccn4)CC3)nc2c1`, for which the RP-LC retention time was found to be 660 s.
As for `Cc1ccc(-n2nnc(C(=O)O)c2-c2ccncc2)cc1`, the RP-LC retention time came to 636 s.
For `CCN1C(=O)COc2ccc(-c3csc(NC(=O)C4CCCCC4)n3)cc21` the value was 1050 s.
Turning to `Cn1nc2n(c1=O)CCN(C(=O)CC1=CCCCC1)CC2`, the RP-LC retention time came to 656 s.
`O=C(NCc1ccc(N2CCCCC2)cc1)C1CCN(c2nnc3ccccn23)CC1` yielded an RP-LC retention time of 545 s.
Consider `CC1(C)CC(=O)c2cnc(N3CCN(c4ccccn4)CC3)nc2C1`, for which the RP-LC retention time was 621 s.
On to `COc1cccc(CNC2=NCCNC23CCN(S(=O)(=O)c2cc(C)c(C)cc2C)CC3)c1`, for which the RP-LC retention time was 836 s.
For `CCCNC(=O)C1CCN(c2ccc(SCC(=O)Nc3ccc4c(c3)OCCO4)nn2)CC1` the value was 626 s; for `CCc1ccc(NC(=O)CN2C(=O)C3CCCCN3c3ccc(S(=O)(=O)N(C)C)cc32)cc1` (centres undefined), 817 s; for `COc1ccc(-c2nc(Cn3ccn4nc(-c5ccccc5)cc4c3=O)c(C)o2)c(OC)c1`, 1030 s.
For `CCOc1ccc(NC(=O)c2cnc(N3CCN(CC)CC3)nc2N)cc1` the value was 609 s; for `O=C(Cn1c(=O)c2cccn2c2ccc(F)cc21)NCCCN1CCc2ccccc2C1`, 664 s.
As to `Cc1[nH]c(C(=O)N2CCC(CC(=O)NC3CCCCCC3)CC2)c(C)c1C(=O)OC(C)C`, the RP-LC retention time stood at 886 s.
`Cc1ccc(CC(=O)Nc2ccc(-c3nc(Cn4cc(C)cn4)c(C)o3)cc2)cc1` registered an RP-LC retention time of 962 s.
Turning to `COc1ccccc1NC(=O)CN1CCc2[nH]c3c(OC)ccc(Cl)c3c(=O)c2C1`, the RP-LC retention time is 638 s.
`N=C(N)n1c(N)nc2ccccc2c1=O`: the RP-LC retention time stood at 613 s.
`CCN(CC)CCCNC(=O)C1c2ccccc2C(=O)N2CCc3cc(OC)c(OC)cc3C12` (centres undefined): the RP-LC retention time stood at 597 s.
`Cc1ccc(Nc2c(-c3ccccc3O)nc3ccc(C)cn23)cc1` displayed an RP-LC retention time of 774 s.
Compound `CCOc1cc(C(=O)NC2CCN(c3cc(-c4cccs4)[nH]n3)C2)cc(OCC)c1OCC` (centres undefined) displayed an RP-LC retention time of 839 s.
For `CCOc1ccc(-c2nc(-c3ccc4oc(CC)nc4c3)no2)cc1` the value was 1280 s; for `O=C(Cn1ccc2ccc(N3CCOCC3)nc21)N1CCN(c2ccccc2)CC1`, 879 s.
`CCc1nc(-c2ccc(-c3noc(COc4ccccc4)n3)cc2)cs1` gave an RP-LC retention time of 1290 s.
For `CC1CN(Cc2nc3c(c(=O)n(C)c(=O)n3C)n2CCCc2ccccc2)CC(C)O1` (centres undefined) the value was 732 s; for `COc1ccccc1C1(CNC(=O)C(=O)NCCC2=CCCCC2)CCOCC1`, 998 s; for `Cc1cc(C)c(-c2noc(C)n2)c(NC(=O)C2CCCCC2)n1`, 723 s.
The compound `O=C(NCc1ccco1)C1CCN(c2cncnc2N2CCOCC2)CC1` registered an RP-LC retention time of 578 s.
The compound `O=C(NCCc1csc(-c2cccc(F)c2)n1)Nc1c(F)cccc1F` registered an RP-LC retention time of 810 s.
`COc1cccc(CNC(=O)N2CCC(N3CCN(Cc4cccc(F)c4)C(=O)C3=O)CC2)c1` registered an RP-LC retention time of 688 s.
The compound `Cc1cnc(C(=O)N2CCC(c3noc(-c4cccnc4)n3)C2)cn1` (centres undefined) returned an RP-LC retention time of 628 s.
Consider `CCC(C)NC(=O)N1CC(Oc2cccc(-c3nc(C)no3)c2)C1` (centres undefined), for which the RP-LC retention time came to 801 s.
Turning to `CCCn1cc(CCNS(=O)(=O)c2ccc(Cl)cc2)c2cccnc21`, the RP-LC retention time was 891 s.
Compound `O=C(NCc1cc(F)cc(F)c1)C1CCCN(c2nc3ccsc3c(=O)n2Cc2ccccc2)C1` (centres undefined) registered an RP-LC retention time of 1050 s.
With `COc1cc(C(=O)Nc2c(-c3ccccc3)nc3ccccn23)cc(OC)c1OC`, the RP-LC retention time is 636 s.
For `O=c1n(CC2CC2)nc2n1CCN(Cc1ccncc1)C2` the value was 511 s; for `O=C(C1CCCN(c2ccc(N3CCOCC3)nn2)C1)N1CCN(c2ccccc2)CC1` (centres undefined), 635 s.
For `CCN1CCN(C(=O)C2CCN(S(=O)(=O)c3c(C)nn(-c4ccccc4)c3C)CC2)CC1` the value was 621 s; for `Cc1nc(OCC(=O)NCc2ccc(Cl)cc2)c2c(C)c(C)oc2n1`, 941 s.
`O=C(Nc1ccc2c(c1)OCO2)C(=O)c1ccc[nH]1`: the RP-LC retention time is 802 s.
Then `CN1C(=O)C2CCCCN2c2ccc(C(=O)N3CCC4(CC3)OCCO4)cc21` (centres undefined), with 750 s; and `CC1CCCN(C(=O)C(=O)NCc2n[nH]c(=O)c3ccccc23)C1` (centres undefined), with 644 s.
Take `CCN1CCN(C(=O)CN2C(=O)C3CCCCN3c3ccc(S(=O)(=O)N4CCCC4)cc32)CC1` (centres undefined): the RP-LC retention time came to 644 s.
Then `CC1=C(c2ccccc2)S(=O)(=O)N=C1N1CCCN(C(=O)c2ccc(F)c(F)c2)CC1`, with 900 s; and `O=C(NCCCn1ccnc1)C1CC(=O)N(CCc2c[nH]c3ccc(Cl)cc23)C1` (centres undefined), with 603 s.
Take `Cn1cc(S(=O)(=O)N2CCCCC2)cc1C(=O)N1CCN(c2ccc(F)cc2)CC1`: the RP-LC retention time is 940 s.
`Cc1ccc(C(=O)CC2(O)C(=O)Nc3ccccc32)c(C)c1` (centres undefined) had an RP-LC retention time of 759 s.
For `N#Cc1ccccc1NC(=O)Cc1ccc2c(c1)OCO2` the value was 710 s.
Then `COc1cc(Cl)c(NC(=O)C2CCCN(C(=O)c3cc(-c4ccncc4)n[nH]3)C2)c(OC)c1` (centres undefined), with 642 s; and `O=C(COc1ccc(F)cc1)Nc1ccc2c(c1)N(C(=O)c1ccco1)CCC2`, with 712 s; and `O=C(O)c1cn(-c2ccc3c(c2)CCC3)nn1`, with 768 s.
Compound `CCC1CN2C=Nc3oc(C)c(C(=O)Nc4ccc(F)c(Cl)c4)c3C2=N1` (centres undefined) returned an RP-LC retention time of 704 s.
With `CCN(CC)CCNC(=O)Cn1c2ccccc2c2cnn(C)c(=O)c21`, the RP-LC retention time worked out at 599 s.
Take `Cc1sc2ccn(C)c(=O)c2c1C(=O)NCc1ccc(N2CCCCC2)cc1`: the RP-LC retention time worked out at 580 s.
Consider `Cc1ccc(C(=O)c2cnc3cc4c(cc3c2N2CCOCC2)OCO4)cc1C`, for which the RP-LC retention time was 714 s.
As to `FC(F)(F)c1ccc(CN2CCN(c3cnn4cnnc4c3)CC2)cc1`, the RP-LC retention time amounted to 594 s.
For the compound `O=S(=O)(Nc1cccn2c(C3CCC3)nnc12)c1cccc2cccnc12`, the RP-LC retention time amounted to 749 s.
Take `Cc1ccc(NC(=O)Nc2nc(C(=O)N3CCN(C(=O)c4ccco4)CC3)cs2)cc1`: the RP-LC retention time came to 704 s.
`COc1cccc(-c2nnc(Cc3nc(-c4ccc(C)c(C)c4)no3)o2)c1` registered an RP-LC retention time of 1120 s.
`CN1C(=O)c2ccccc2Oc2ccc(C(=O)NCCCc3ccccc3)cc21`: the RP-LC retention time is 964 s.
`CC1(C)CC(=O)C2=C(C1)Nc1ccccc1N(CC(=O)Nc1ccccc1)C2c1ccc(F)cc1` (centres undefined) registered an RP-LC retention time of 938 s.
`COCCc1nc(C2CCCN(C(=O)c3sccc3C)C2)n[nH]1` (centres undefined) displayed an RP-LC retention time of 590 s.
